Columns and labels:
[1] = target: Serine/threonine-protein kinase RIO3 (Homo sapiens) (UniProt O14730); assay: Selectivity interaction (Ambit kinase binding assay panel) EUB0000609a RIOK3; settings: at 10 µM
[2] = target: T1, Dual specificity protein kinase CLK1 (Homo sapiens, UniProt P49759); assay: Selectivity interaction (Ambit kinase binding assay panel) EUB0000609a CLK1; settings: at 10 µM
Target sequence in this assay (P49759 whole entry, looked up): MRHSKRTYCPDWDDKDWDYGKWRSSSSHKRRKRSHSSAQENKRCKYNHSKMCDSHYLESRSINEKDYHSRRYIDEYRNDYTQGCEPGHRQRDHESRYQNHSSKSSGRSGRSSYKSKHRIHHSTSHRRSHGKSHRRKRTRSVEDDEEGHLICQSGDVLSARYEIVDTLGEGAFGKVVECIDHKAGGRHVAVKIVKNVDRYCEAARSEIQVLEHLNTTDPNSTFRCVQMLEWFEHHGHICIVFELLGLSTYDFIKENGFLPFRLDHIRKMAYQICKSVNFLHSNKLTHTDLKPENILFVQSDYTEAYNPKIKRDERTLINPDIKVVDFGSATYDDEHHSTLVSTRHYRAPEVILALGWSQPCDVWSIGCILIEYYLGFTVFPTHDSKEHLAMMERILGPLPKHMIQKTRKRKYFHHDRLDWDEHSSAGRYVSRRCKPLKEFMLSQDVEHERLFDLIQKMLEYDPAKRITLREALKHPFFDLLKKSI

[3] = target: T1, Dual specificity protein kinase CLK1; assay: Selectivity interaction (Enzymatic assay) EUB0000609a CLK1
Target sequence in this assay (P49759 whole entry): as the sequence (P49759 whole entry, looked up) above

[4] = target: T2, Mitogen-activated protein kinase 1 (Homo sapiens, UniProt P28482); assay: Selectivity interaction (Ambit kinase binding assay panel) EUB0000609a MAPK1; settings: at 10 µM
T2 sequence (P28482 whole entry): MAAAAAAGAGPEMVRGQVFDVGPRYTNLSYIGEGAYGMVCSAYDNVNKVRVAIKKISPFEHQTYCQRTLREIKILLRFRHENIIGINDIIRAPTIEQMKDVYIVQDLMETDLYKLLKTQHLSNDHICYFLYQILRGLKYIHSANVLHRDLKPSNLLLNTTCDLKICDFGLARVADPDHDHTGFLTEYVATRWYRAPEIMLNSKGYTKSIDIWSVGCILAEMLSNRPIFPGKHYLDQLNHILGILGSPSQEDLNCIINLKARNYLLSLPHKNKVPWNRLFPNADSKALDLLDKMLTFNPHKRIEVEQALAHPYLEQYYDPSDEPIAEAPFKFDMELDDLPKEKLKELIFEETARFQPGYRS

[5] = target: T2, Mitogen-activated protein kinase 1; assay: Selectivity interaction (Enzymatic assay) EUB0000609a MAPK1
[6] = target: Mitogen-activated protein kinase 8 (Homo sapiens, UniProt P45983); assay: Selectivity interaction (Ambit kinase binding assay panel) EUB0000609a MAPK8; settings: at 10 µM
[7] = target: T3, Cyclin-G-associated kinase (Homo sapiens) (UniProt O14976); assay: Selectivity interaction (Ambit kinase binding assay panel) EUB0000609a GAK; settings: at 10 µM
T3 sequence (whole entry): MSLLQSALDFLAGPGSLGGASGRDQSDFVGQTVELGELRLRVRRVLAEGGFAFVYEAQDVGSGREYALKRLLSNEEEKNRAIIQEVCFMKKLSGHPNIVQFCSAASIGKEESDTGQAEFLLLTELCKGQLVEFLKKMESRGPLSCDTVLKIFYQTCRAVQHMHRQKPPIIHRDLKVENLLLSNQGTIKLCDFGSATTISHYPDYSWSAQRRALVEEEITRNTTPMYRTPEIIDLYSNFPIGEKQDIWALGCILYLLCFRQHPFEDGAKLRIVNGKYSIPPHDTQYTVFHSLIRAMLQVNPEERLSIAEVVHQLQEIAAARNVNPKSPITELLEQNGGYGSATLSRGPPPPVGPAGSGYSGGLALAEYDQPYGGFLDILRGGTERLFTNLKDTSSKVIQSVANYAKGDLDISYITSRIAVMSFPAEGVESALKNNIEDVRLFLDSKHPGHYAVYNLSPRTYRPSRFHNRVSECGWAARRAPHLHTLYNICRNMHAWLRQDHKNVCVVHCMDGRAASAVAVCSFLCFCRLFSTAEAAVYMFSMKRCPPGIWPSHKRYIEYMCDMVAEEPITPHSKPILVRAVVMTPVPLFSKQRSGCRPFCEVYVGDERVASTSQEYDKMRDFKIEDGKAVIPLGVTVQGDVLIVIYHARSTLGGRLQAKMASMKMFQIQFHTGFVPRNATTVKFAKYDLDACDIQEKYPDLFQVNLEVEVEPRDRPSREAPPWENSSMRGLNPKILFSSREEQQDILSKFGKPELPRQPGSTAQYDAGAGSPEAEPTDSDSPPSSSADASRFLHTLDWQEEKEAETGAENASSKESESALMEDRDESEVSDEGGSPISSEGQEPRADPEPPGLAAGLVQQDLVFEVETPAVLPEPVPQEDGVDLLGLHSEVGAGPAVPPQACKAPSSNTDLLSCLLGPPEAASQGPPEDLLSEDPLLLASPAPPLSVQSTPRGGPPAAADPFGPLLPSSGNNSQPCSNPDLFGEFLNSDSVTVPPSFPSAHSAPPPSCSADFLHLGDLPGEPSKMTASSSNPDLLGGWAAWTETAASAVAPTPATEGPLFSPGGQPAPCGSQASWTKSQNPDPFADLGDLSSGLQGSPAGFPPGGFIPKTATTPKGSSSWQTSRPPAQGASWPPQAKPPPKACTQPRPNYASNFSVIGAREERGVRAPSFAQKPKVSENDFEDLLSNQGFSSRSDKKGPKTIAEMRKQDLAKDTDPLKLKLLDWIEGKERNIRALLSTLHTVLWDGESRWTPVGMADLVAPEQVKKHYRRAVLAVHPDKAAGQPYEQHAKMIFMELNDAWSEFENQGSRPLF

[8] = target: Cyclin-G-associated kinase (Homo sapiens, UniProt O14976); assay: Selectivity interaction (Enzymatic assay) EUB0000609a GAK
[9] = target: Dual specificity mitogen-activated protein kinase kinase 4 (Homo sapiens) (UniProt P45985); assay: Selectivity interaction (Ambit kinase binding assay panel) EUB0000609a MAP2K4; settings: at 10 µM
Sequence of Dual specificity mitogen-activated protein kinase kinase 4 (Homo sapiens) (P45985 whole entry): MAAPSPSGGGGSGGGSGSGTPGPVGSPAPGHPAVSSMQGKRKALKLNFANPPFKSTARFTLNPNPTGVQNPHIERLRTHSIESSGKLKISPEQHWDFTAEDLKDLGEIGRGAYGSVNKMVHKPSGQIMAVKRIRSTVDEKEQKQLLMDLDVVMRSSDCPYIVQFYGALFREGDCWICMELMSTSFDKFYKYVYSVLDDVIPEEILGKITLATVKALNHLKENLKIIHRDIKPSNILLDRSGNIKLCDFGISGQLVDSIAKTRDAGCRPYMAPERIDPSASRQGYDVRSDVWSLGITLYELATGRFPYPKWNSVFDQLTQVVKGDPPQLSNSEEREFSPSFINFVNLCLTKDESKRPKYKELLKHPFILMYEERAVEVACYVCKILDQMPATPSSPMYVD

Activated CDC42 kinase 1 = Activated CDC42 kinase 1 (Homo sapiens, UniProt Q07912); assay: Selectivity interaction (Enzymatic assay) EUB0000609a TNK2
[10] = target: Non-receptor tyrosine-protein kinase TNK1 (Homo sapiens, UniProt Q13470); assay: Selectivity interaction (Enzymatic assay) EUB0000609a TNK1
[11] = target: T4, ALK tyrosine kinase receptor (Homo sapiens, UniProt Q9UM73); assay: Selectivity interaction (Ambit kinase binding assay panel) EUB0000609a ALK; settings: at 10 µM
[12] = target: T4, ALK tyrosine kinase receptor; assay: Selectivity interaction (Enzymatic assay) EUB0000609a ALK
[13] = target: T5, Leukocyte tyrosine kinase receptor (Homo sapiens, UniProt P29376); assay: Selectivity interaction (Ambit kinase binding assay panel) EUB0000609a LTK; settings: at 10 µM
T5 sequence (P29376 whole entry): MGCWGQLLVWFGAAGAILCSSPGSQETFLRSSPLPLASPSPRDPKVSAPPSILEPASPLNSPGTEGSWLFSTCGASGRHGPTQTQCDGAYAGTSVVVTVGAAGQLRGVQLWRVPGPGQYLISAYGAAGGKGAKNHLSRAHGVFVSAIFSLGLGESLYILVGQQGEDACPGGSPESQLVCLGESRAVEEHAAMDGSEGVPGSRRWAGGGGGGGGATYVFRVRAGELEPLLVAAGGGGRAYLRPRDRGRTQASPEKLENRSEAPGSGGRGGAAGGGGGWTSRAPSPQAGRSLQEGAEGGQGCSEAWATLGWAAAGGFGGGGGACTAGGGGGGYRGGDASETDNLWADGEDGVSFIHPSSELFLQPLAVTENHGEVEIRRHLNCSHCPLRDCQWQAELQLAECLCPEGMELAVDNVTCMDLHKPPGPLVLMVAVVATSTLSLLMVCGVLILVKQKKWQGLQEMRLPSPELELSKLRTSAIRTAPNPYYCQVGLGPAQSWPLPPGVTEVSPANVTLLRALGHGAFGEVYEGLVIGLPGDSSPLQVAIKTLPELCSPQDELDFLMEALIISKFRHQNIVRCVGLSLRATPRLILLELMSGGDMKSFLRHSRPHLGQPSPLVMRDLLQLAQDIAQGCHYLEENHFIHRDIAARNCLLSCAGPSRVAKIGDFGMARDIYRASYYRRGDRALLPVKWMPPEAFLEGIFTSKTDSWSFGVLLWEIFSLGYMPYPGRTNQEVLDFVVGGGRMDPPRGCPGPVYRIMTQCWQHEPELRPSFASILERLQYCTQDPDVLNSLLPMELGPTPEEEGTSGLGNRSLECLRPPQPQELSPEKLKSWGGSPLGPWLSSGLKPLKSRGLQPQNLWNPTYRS

[14] = target: T5, Leukocyte tyrosine kinase receptor; assay: Selectivity interaction (Enzymatic assay) EUB0000609a LTK
Focal adhesion kinase 1 = Focal adhesion kinase 1 (Homo sapiens, UniProt Q05397); assay: Selectivity interaction (Enzymatic assay) EUB0000609a PTK2
[15] = target: T6, Protein-tyrosine kinase 2-beta (Homo sapiens, UniProt Q14289); assay: Selectivity interaction (Ambit kinase binding assay panel) EUB0000609a PTK2B; settings: at 10 µM
[16] = target: T6, Protein-tyrosine kinase 2-beta; assay: Selectivity interaction (Enzymatic assay) EUB0000609a PTK2B
[17] = target: T7, Insulin-like growth factor 1 receptor (Homo sapiens, UniProt P08069); assay: Selectivity interaction (Ambit kinase binding assay panel) EUB0000609a IGF1R; settings: at 10 µM
[18] = target: T7, Insulin-like growth factor 1 receptor; assay: Selectivity interaction (Enzymatic assay) EUB0000609a IGF1R
Insulin receptor [19] = target: T8, Insulin receptor (Homo sapiens, UniProt P06213); assay: Selectivity interaction (Ambit kinase binding assay panel) EUB0000609a INSR; settings: at 10 µM
T8 sequence (P06213 28-758 limits assumed): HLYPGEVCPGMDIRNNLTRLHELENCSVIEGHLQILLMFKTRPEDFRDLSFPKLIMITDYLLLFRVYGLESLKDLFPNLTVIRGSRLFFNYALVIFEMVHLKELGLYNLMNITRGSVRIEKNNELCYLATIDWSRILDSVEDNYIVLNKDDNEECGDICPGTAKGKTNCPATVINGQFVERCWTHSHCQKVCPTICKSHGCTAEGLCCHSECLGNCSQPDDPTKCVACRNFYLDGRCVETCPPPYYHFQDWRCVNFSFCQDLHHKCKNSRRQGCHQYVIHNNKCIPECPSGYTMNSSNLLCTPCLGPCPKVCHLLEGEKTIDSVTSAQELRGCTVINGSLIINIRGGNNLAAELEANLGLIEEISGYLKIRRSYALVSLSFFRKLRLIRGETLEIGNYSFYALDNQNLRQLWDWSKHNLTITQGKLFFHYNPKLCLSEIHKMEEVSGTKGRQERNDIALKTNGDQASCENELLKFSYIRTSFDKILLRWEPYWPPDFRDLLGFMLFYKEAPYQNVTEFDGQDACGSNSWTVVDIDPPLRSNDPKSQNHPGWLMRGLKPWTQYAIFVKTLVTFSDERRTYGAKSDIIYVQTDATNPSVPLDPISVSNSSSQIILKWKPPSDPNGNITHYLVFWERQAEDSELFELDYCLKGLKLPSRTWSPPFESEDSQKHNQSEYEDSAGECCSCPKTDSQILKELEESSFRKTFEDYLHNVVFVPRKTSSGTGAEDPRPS
T8 sequence (P06213 763-1382 limits assumed): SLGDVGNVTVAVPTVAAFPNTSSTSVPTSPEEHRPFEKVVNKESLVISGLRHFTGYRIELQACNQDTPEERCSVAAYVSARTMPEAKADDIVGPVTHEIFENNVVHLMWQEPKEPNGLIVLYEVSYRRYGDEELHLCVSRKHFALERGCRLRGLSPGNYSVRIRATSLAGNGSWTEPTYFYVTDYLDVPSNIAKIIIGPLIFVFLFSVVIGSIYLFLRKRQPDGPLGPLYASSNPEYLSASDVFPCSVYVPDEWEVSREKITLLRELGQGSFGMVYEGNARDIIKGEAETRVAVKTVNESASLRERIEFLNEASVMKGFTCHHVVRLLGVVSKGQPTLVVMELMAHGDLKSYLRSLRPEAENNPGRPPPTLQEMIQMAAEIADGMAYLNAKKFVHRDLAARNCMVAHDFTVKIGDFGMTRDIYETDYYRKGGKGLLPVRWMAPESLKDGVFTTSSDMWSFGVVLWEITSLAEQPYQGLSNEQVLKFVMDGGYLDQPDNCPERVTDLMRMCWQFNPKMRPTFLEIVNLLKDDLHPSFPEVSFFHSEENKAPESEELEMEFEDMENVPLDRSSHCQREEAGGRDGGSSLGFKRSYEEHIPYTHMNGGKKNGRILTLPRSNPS

Insulin receptor [20] = target: T8, Insulin receptor; assay: Selectivity interaction (Enzymatic assay) EUB0000609a INSR
[21] = target: T9, Insulin receptor-related protein (Homo sapiens, UniProt P14616); assay: Selectivity interaction (Ambit kinase binding assay panel) EUB0000609a INSRR; settings: at 10 µM
T9 sequence (P14616 27-742 limits assumed): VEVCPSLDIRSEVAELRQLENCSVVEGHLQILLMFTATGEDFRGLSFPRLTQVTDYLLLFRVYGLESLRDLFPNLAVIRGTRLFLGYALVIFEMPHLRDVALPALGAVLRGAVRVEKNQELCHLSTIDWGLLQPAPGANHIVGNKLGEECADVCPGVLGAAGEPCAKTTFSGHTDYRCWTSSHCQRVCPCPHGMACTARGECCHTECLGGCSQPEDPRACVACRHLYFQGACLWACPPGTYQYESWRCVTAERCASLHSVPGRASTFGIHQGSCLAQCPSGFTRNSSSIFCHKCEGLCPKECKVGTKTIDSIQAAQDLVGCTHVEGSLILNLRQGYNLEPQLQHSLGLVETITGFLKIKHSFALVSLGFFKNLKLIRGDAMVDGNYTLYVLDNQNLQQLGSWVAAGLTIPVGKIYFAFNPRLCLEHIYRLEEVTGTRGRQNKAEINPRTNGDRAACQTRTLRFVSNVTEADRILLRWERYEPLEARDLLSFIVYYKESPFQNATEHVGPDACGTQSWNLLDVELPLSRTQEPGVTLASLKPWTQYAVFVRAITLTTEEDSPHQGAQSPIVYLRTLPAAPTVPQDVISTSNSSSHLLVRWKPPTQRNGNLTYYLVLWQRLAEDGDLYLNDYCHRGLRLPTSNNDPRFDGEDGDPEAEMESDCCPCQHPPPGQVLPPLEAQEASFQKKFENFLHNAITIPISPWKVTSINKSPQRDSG
T9 sequence (P14616 747-1297 limits assumed): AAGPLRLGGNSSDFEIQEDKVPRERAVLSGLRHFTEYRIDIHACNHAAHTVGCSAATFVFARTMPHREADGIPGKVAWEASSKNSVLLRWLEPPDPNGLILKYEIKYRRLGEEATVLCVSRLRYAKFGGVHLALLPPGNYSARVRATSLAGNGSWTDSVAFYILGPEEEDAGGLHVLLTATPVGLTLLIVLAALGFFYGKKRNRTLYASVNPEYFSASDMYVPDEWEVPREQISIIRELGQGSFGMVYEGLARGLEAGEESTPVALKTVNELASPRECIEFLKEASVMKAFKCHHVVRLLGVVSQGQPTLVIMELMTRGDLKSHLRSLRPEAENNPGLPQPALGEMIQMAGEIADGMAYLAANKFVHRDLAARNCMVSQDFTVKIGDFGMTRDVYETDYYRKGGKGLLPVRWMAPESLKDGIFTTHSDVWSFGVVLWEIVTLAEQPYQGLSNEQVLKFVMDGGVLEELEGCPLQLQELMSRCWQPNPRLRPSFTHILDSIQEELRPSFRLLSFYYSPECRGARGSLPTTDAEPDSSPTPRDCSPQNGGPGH

[22] = target: T9, Insulin receptor-related protein; assay: Selectivity interaction (Enzymatic assay) EUB0000609a INSRR
[23] = target: Serine/threonine-protein kinase N2 (Homo sapiens) (UniProt Q16513); assay: Selectivity interaction (Ambit kinase binding assay panel) EUB0000609a PKN2; settings: at 10 µM

## COc1cc(N2CCC(O)CC2)ccc1Nc1cc(Nc2ccccc2S(=O)(=O)C(C)C)c2cc[nH]c2n1
[1]
  % of control: 0.5%
[2]
  % of control: 7.3%
[3]
  IC50: 1900 nM
[4]
  % of control: 6%
[5]
  IC50: 2900 nM
[6]
  % of control: 5.2%
[7]
  % of control: 5.4%
[8]
  IC50: 1100 nM
[9]
  % of control: 6.2%
Activated CDC42 kinase 1
  IC50: 3100 nM
[10]
  IC50: 2600 nM
[11]
  % of control: 8.9%
[12]
  IC50: 21 nM
[13]
  % of control: 1.2%
[14]
  IC50: 29 nM
Focal adhesion kinase 1
  IC50: 440 nM
[15]
  % of control: 0.5%
[16]
  IC50: 280 nM
[17]
  % of control: 0.9%
[18]
  IC50: 750 nM
Insulin receptor [19]
  % of control: 0.15%
Insulin receptor [20]
  IC50: 470 nM
[21]
  % of control: 2%
[22]
  IC50: 1200 nM
[23]
  % of control: 0.1%

From ChEMBL document CHEMBL5212743, “Selectivity Literature for EUbOPEN Chemogenomics Library wave 3” (2023)
